# Measured values from patent publication US20240197661A1, “ORAL DOSAGE FORMS OF METHYL HYDROGEN FUMARATE AND PRODRUGS THEREOF” (Arbor Pharmaceuticals, LLC, priority 2012, published 2024).
# Experiments:
# [1] = test system: healthy adult subjects; experiment: safety and tolerability in single-dose food effect study; assay type: in vivo, human; conditions: single 100 mg dose, fed and fasted
# Excerpt: Twelve healthy adult volunteers (males and females) participated in the study. All twelve subjects received […] a dosage form of Example 3, once in a fed condition and once in a fasted condition, with a two-week washout between treatments. The fasted dosing was achieved by dosing the subject following an overnight fast while the fed dosing was achieved by dosing the subject after consuming a high fat-content breakfast.
# All 12 subjects completed the dosing period. All adverse events were mild.
# [2] = degradation of MHF prodrugs in pH 6.0 phosphate buffer with sodium acetate
# Procedure: Each prodrug was placed in a pH 6.0 phosphate buffer with multiple concentrations of sodium acetate (0.0 M, 0.1 M, 0.5 M, 2.0 M, 3.0 M, and 4.0 M) at 40° C. The presence of prodrug was measured over time up to 42 hours. The rate of prodrug degradation can be expressed according to the following formula: In (A)=In (A0)−Kobs●t, wherein A is the prodrug concentration, A0 is the prodrug concentration at time zero and Kobs is the observed slope of the curve plotting In (A) versus time (t). Thus, the higher the Kobs, the more quickly the prodrug is degrading.
# [3] = test system: subjects with moderate-to-severe plaque psoriasis; experiment: safety (adverse events) in 24-week plaque psoriasis study; assay type: in vivo, human
# Procedure: (§1) Study subjects were enrolled at 76 US sites. Patients had chronic plaque psoriasis for more than 6 months, PASI (Psoriasis Area and Severity Index) scores ≥12, IGA (Investigator's Global Assessment) Scores ≥3, and psoriasis BSA (Body Surface Area) ≥10%. Altogether 426 subjects were randomized in a 1:1:1:1 ratio into 4 dose arms: 400 mg QD, 400 mg BID, 600 mg BID, and placebo. A 5-week titration phase was followed by 19 weeks of treatment. The co-primary end points at week 24 were the percentages of patients achieving an at least 75% reduction of their baseline PASI (“PASI-75”) and an IGA score of ‘clear’ or ‘almost clear’ (i.e., 0 or 1).
# [4] = test system: subjects with moderate-to-severe plaque psoriasis; experiment: 24-week placebo-controlled efficacy study in plaque psoriasis; assay type: in vivo, human; conditions: for patients achieving PASI-75 / patients achieving an IGA score of 0 or 1: week 24
# Procedure: as §1
smiles,measurement,setting,value
"CCN(CC)C(=O)COC(=O)/C=C/C(=O)OC [PPC-06, (N,N-Diethylcarbamoyl)methyl methyl (2E)but-2-ene-1,4-dioate]",severity of adverse events,[1],mild
same,tolerability during the trial,[1],well tolerated
same,formation rates of both primary degradation products,"[2]; 14.6 hour exposure, pH 6.0, 40° C., varying acetate concentration",increased with increasing acetate concentration
same,effect of acetate on degradation rate compared to DMF,"[2]; pH 6.0, 40° C.",more pronounced
same,degradation rate (Kobs) as a function of acetate concentration,"[2]; pH 6.0 phosphate buffer, sodium acetate 0.0-4.0 M, 40° C., up to 42 hours",increased with increasing concentrations of acetate
same,patients reporting diarrhea (TEAE),[3]; 400 mg BID,18%
same,patients reporting diarrhea (TEAE),[3]; 400 mg QD,7%
same,patients reporting diarrhea (TEAE),[3]; 600 mg BID,23%
same,flushing reported,[3]; PPC-06 treatment arms,1-2%
same,subjects developing CTCAE grade 3 lymphopenia,"[3]; during treatment, recovered on discontinuation",Two
same,new or unexpected adverse events compared to DMF drugs,[3]; in vivo,No new or unexpected adverse events
same,severity of most cases of diarrhea,[3]; in vivo,mild to moderate
same,nausea and abdominal pain reported,[3]; overall PPC-06 population,less than 10%
same,patients achieving PASI-75,"[4]; 400 mg BID, p=0.002 vs placebo",47.2%
same,patients achieving an IGA score of 0 or 1,"[4]; 400 mg BID, p=0.021 vs placebo",41.4%
same,patients achieving PASI-75,"[4]; 400 mg QD, p=0.004 vs placebo",39.7%
same,patients achieving an IGA score of 0 or 1,"[4]; 400 mg QD, p=0.044 vs placebo",35.7%
same,patients achieving PASI-75,"[4]; 600 mg BID, p=0.004 vs placebo",44.3%
same,patients achieving an IGA score of 0 or 1,"[4]; 600 mg BID, p=0.010 vs placebo",44.4%
same,efficacy compared to placebo,"[4]; 24 weeks of treatment, three dose strengths",significant efficacy compared to placebo
